Assay results reported in patent publication US9133131B2 (Purdue Pharma L.P., priority 2011, dated 2015).

Experiments:
human Nav1.7 = human Nav1.7 (Homo sapiens (Human), UniProt Q15858); experiment: FLIPR sodium dye assay for sodium channel blocking activity; format: cell-based; settings: recombinant human Nav1.7 in HEK293 cells
Text: For dominant selection of the Nav1.7-expressing clones, the expression plasmid co-expressed the neomycin resistance gene. […] Recombinant beta and gamma subunits were not introduced into this cell line. Additional cell lines expressing recombinant Nav1.7 cloned from other species can also be used, alone or in combination with various beta subunits, gamma subunits or chaperones.
Cell maintenance: Unless otherwise noted, cell culture reagents were purchased from Mediatech of Herndon, Va. The recombinant Nav1.7/HEK293 cells were routinely cultured in growth medium consisting of Dulbecco's […] essential medium containing 10% fetal bovine serum (FBS, Hyclone, Thermo Fisher Scientific, Logan, Utah), 100 U/mL penicillin, 100 μg/mL streptomycin, 2-4 mM L-glutamine, and […] G418. For natural, non-recombinant cell lines, the selective antibiotic was omitted, and additional media formulations can be applied as needed.
The intensity of this emission, but not the wavelength range, is increased when the dye is exposed to Na^+ ions, which it can bind with partial selectivity. Cells expressing Nav1.7 or other sodium channels were loaded with the CoroNa™ Green dye immediately in advance of the fluorescence assay, and then, after agonist stimulation, the mobilization of Na^+ ions was detected as the Na^+ ions flowed from the extracellular fluid into the cytoplasm through the activated sodium channel pores. The dye was stored in the dark as a lyophilized powder, and then an aliquot was dissolved immediately before the cell loading procedure, according to the instructions of the manufacturer to a stock concentration of 10 mM in DMSO. It was then diluted in the assay buffer to a 4× concentrated working solution, so that the final concentration of dye in the cell loading buffer was 5 μM.
These scorpion toxins inhibit the fast inactivation of their cognate target channels. Stock solutions of the agonists were prepared to 40 mM in DMSO (veratridine) and 1 mg/mL in dH2O (scorpion venom), and then diluted to make a 4× or 2× stock (depending on the particular assay) in assay buffer, the final concentration being 100 μM (veratridine) and 10 μg/mL (scorpion venom). Both of the agonists were purchased from Sigma Aldrich, St. Louis, Mo.
Test Compounds: Test compounds were dissolved in DMSO to yield 10 mM stock solutions. […] If a particular test article appeared to be especially potent, then the concentration curve was adjusted, e.g., to 10-fold lower concentrations, in order to perform the dose-response in a more relevant concentration range. Compound dilutions were added during the dye-loading and pre-stimulation step, and then again during the fluorescence assay, early in the kinetic read.
Data Analysis: The data were analyzed according to methods known to those skilled in the art or using the GraphPad® Prism version 4.0 or higher, Program (available from GraphPad Software, San Diego, Calif.) to determine the IC50 value for the test article. At least one standard reference compound was evaluated during each experiment.
FLIPR® or FLIPR^TETRA® sodium dye assay with KCl and test article pre-incubation: Cells were prepared by plating the recombinant HEK293 cells or other host cells expressing either recombinant or non-recombinant, native, Nav1.7 alpha subunit, alone or in combination with various beta and gamma subunits at a density of ˜40,000 cells/well into a 96-well black, clear-bottom, PDL-coated plate. The assay can be adapted to 384-well or 1,536-well format, if desired, using proportionately less cells and media. The plate was then incubated in growth media, with or without selective antibiotic, overnight at 37° C. at 5% CO2, 95% humidity, in preparation for the assay. For counter-screens of other voltage-gated sodium channels, the procedure was very similar, though optimal densities of cells, media and subsequent assay components can be fine-tuned for the particular cell line or isoform.

hNav1.7 = hNav1.7 (Homo sapiens (Human), UniProt Q15858); experiment: Electrophysiology (EP) whole-cell patch clamp assay; format: cell-based; settings: hNav1.7 HEK-293 cells; for Ki: affinity for the inactivated state of the channel, read-out: Nav1.7 Activity EP assay Ki; for Kd: resting block dissociation constant, read-out: Nav1.7 Activity EP assay Kr
hNav1.7, sequence (Q15858 other isoform, or with tags, fused parts or gaps): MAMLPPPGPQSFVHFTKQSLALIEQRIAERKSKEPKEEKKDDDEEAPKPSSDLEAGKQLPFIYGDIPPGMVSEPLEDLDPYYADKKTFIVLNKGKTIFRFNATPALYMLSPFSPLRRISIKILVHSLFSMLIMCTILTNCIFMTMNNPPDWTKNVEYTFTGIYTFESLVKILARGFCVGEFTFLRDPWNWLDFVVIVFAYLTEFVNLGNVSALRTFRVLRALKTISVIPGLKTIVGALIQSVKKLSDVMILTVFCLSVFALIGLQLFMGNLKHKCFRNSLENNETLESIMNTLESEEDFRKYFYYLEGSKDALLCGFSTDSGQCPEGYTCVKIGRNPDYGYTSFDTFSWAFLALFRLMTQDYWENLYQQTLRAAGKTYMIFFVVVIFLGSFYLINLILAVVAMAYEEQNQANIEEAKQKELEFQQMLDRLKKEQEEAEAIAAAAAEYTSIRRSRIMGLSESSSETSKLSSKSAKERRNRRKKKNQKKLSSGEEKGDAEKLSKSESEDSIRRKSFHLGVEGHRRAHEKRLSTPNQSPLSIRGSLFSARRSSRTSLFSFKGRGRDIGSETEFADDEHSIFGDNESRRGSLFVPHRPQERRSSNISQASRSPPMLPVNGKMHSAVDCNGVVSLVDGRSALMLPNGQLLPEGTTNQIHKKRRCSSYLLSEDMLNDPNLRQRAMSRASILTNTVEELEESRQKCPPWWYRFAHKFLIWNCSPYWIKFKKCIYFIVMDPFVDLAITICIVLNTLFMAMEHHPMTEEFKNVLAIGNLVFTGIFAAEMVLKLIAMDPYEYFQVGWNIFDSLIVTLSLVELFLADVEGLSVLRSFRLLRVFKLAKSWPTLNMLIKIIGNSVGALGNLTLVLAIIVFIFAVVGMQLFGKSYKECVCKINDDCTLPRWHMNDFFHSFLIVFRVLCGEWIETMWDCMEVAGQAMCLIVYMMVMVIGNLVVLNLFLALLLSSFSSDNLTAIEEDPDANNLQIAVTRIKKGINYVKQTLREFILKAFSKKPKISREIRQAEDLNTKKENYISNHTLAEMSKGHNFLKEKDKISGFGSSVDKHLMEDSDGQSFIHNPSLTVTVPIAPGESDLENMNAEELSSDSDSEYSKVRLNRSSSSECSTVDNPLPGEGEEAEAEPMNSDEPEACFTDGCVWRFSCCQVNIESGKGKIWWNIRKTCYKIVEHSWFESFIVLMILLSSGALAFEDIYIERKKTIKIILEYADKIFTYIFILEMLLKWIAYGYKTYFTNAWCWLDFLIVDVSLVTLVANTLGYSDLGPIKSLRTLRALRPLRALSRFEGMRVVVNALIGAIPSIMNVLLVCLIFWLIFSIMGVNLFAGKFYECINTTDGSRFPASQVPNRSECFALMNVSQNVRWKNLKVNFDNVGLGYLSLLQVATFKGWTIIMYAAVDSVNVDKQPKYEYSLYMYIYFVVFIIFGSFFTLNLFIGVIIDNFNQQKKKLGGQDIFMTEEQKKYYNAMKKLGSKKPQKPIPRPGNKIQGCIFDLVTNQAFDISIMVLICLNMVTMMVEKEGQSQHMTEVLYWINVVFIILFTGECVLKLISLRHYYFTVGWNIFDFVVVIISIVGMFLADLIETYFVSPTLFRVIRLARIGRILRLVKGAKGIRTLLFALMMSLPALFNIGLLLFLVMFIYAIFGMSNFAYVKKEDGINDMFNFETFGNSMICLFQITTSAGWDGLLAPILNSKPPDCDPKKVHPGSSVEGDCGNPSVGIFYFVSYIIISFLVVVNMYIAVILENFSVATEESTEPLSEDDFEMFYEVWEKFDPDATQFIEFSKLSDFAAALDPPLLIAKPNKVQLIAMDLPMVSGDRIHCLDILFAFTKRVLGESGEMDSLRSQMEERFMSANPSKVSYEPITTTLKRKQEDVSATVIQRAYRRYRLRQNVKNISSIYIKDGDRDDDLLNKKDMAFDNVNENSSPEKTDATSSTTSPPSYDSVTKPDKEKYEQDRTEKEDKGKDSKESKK
Description: Cells: The hNav1.7 expressing HEK-293 cells were plated on 35 mm culture dishes pre-coated with poly-D-lysine in standard DMEM culture media (Mediatech, Inc., Herndon, Va.) and incubated in a 5% CO2 incubator at 37° C. Cultured cells were used approximately 12-48 hours after plating.
Electrophysiology: On the day of experimentation, the 35 mm dish was placed on the stage of an inverted microscope equipped with a perfusion system that continuously perfuses the culture dish with fresh recording media. A gravity driven superfusion system was used to apply test solutions directly to the cell under evaluation. This system consists of an array of glass pipette glass connected to a motorized horizontal translator. The outlet of the shooter was positioned approximately 100 μm from the cell of interest.
Whole cell currents were recorded using the whole-cell patch clamp configuration using an Axopatch 200B amplifier (Axon Instruments, Foster City Calif.), 1322A A/D converter (Axon Instruments) and pClamp software (v. 8; Axon Instruments) and stored on a personal computer. Gigaseals were formed and the whole-cell configuration was established in voltage clamp mode, and membrane currents generated by hNav1.7 were recorded in gap-free mode. Borosilicate glass pipettes have resistance values between 1.5 and 2.0 MΩ when filled with pipette solution and series resistance (<5 MΩ) was compensated 75-80%. Signals were sampled at 50 kHz and low pass filtered at 3 kHz.
Voltage protocols: After establishing the whole-cell configuration in voltage clamp mode, voltage protocols were run to establish the 1) test potential, 2) holding potential, and 3) the conditioning potential for each cell.
After establishing the whole-cell configuration in voltage clamp mode, a standard I-V protocol was run to determine the potential at which the maximal current (Imax) is elicited. This potential was the test potential (Vt). To determine a conditioning potential at which 100% of channels were in the inactivated state, a standard steady-state inactivation (SSIN) protocol was run using a series of fifteen 100 ms-long depolarizing prepulses, incrementing in 10 mV steps, immediately followed by a 5 ms testing pulse, Vt, to Vmax. This protocol also permitted determination of the holding potential at which all channels are in the resting state.
For compounds causing significant retardation of recovery from inactivation, an estimate of the affinity for the inactivated state of the channel (Ki) was generated using the following protocol. From the negative, no residual inactivation, holding potential, the cell was depolarized to the conditioning voltage for 2-5 seconds, returned to the negative holding potential for 10-20 ms to relieve fast inactivation and then depolarized to the test potential for ˜15 ms. This voltage protocol was repeated every 10-15 seconds, first to establish a baseline in the absence of the test compound, then in the presence of the test compound.
After a stable baseline was established, the test compound was applied and block of the current elicited by the test pulse assessed. In some cases, multiple cumulative concentrations were applied to identify a concentration that blocked between 40-60% of this current. Washout of the compound was attempted by superfusing with control solution once steady-state block was observed. An estimate of the Ki was calculated as follows: Ki=[drug]*{FR/(1−FR)}, Eq. 1
where [drug] is the concentration of a drug, and FR=I(after drug)/I(control), Eq. 2 where I is the peak current amplitude. If multiple concentrations were used, Ki was determined from the fit of a logistic equation to FRs plotted against corresponding drug concentrations.
In the alternative, the voltage clamp protocol to examine hNav1.7 currents was as follows. […]

human Nav1.7, sequence (Q15858 other isoform, or with tags, fused parts or gaps): as above

`N#Cc1ccc(Oc2ccc(-c3nc(C(N)=O)cc([C@@H](O)CO)n3)cc2)cc1C(F)(F)F` [compound 12] was tested, and the IC50 (human Nav1.7) was 384 ± 29 nM, the Ki (hNav1.7) was 400 ± 90 nM and the Kd (hNav1.7) was 8670 ± 990 nM.

For `NC(=O)c1cc([C@H](O)CO)nc(-c2ccc(Oc3ccc(Cl)cc3F)cc2)n1` [compound 10], the IC50 (human Nav1.7) was 84 ± 29 nM.

For `NC(=O)c1cc([C@@H](O)CO)nc(-c2ccc(Oc3ccc(Cl)cc3F)cc2)n1` [compound 9], the IC50 (human Nav1.7) was 67 ± 5 nM, the Ki (hNav1.7) was 27 ± 0.3 nM and the Kd (hNav1.7) was 1040 ± 230 nM.

With `C[C@H](NC(=O)c1cc([C@H](O)CO)nc(-c2ccc(Oc3ccc(F)cc3)cc2)n1)C(=O)O` [compound 15] the IC50 (human Nav1.7) was > 20000 nM.

In the case of `C[C@H](NC(=O)c1cc([C@H](O)CO)nc(-c2ccc(Oc3ccc(F)cc3)cc2)n1)C(N)=O` [compound 16], the IC50 (human Nav1.7) is reported as 593 ± 4 nM, the Ki (hNav1.7) is reported as 643 ± 190 nM and the Kd (hNav1.7) is reported as 154000 ± 54400 nM.

`COC(=O)[C@H](C)NC(=O)c1cc([C@H](O)CO)nc(-c2ccc(Oc3ccc(F)cc3)cc2)n1` [compound 14] gave an IC50 (human Nav1.7) of 1920 ± 401 nM.

`N#Cc1cc(Oc2ccc(-c3nc(C(N)=O)cc([C@H](O)CO)n3)cc2)ccc1C(F)(F)F` [compound 11] showed an IC50 (human Nav1.7) of 279 ± 112 nM, a Ki (hNav1.7) of 147 ± 30 nM and a Kd (hNav1.7) of 2010 ± 310 nM.

`N#Cc1ccc(Oc2ccc(-c3nc(C(N)=O)cc([C@H](O)CO)n3)cc2)cc1C(F)(F)F` [compound 13] was tested, and the IC50 (human Nav1.7) was 394 ± 19 nM, the Ki (hNav1.7) was 195 ± 30 nM and the Kd (hNav1.7) was 5150 ± 360 nM.

`NC(=O)c1cc([C@@H](O)CO)nc(-c2ccc(Oc3ccc(C(F)(F)F)cc3)cc2)n1` [compound 18] gave an IC50 (human Nav1.7) of 135 ± 28 nM.

`N#Cc1ccc(Oc2ccc(-c3nc(C(N)=O)cc([C@H](O)CO)n3)cc2)c(C(F)(F)F)c1` [compound 5] was tested, and the IC50 (human Nav1.7) was 526 ± 129 nM.

For `NC(=O)c1cc([C@H](O)CO)nc(-c2ccc(Oc3ccc(C(F)(F)F)cc3)cc2)n1` [compound 17], the IC50 (human Nav1.7) was 133 ± 26 nM.

Work on `NC(=O)c1cc([C@H](O)CO)nc(-c2ccc(Oc3ccc(C(F)(F)F)cn3)cc2)n1` [compound 19] yielded an IC50 (human Nav1.7) of 325 nM.
